Results as given in patent publication US20060025477A1, “Analogs of isovaleramide, a pharmaceutical composition including the same, and a method of treating central nervous system conditions or diseases” (priority 2004, published 2006).
Several values for one entry are separate records, joined by “and”; a condition that tells them apart may be missing. Identical values can stand only once. Like-named read-outs stand apart in the source and are kept apart here.

Key:
male Swiss-Webster mice [1] = assay: Maximal electroshock (MES)-induced tonic extension seizure test; format: in vivo, mouse; conditions: for # P/# T (protected/tested): 300 mg/kg p.o.
Experimental: In the MES test, a substance is administered orally (p.o.) and is tested for efficacy against maximal electroshock (MES)-induced tonic extension seizures. Adult male Swiss-Webster mice (each 20-25 g of body weight) were used. The mice were housed in Association for the Assessment and Accreditation of Laboratory Animal Care-approved facilities under a constant 12-hour light/dark cycle with a constant temperature of 21° C.-23° C. and a relative humidity of 30% to 50%. All animals were permitted free access to standard laboratory chow (Prolab RMH 3000; PMI Nutrition International, LLC, Brentwood, Mo.) and water, except when removed from their home cages for testing. All mice were handled in a manner consistent with the recommendations in the National Research Council Publication Guide for the Care and Use of Laboratory Animals.
(§1) Test compounds (Compound S, Compound W, the S-enantiomer of Compound AA, the R-enantiomer of Compound AA, Compound HH, Compound JJ, and Compound MM) were dissolved in saline containing 0.5% methylcellulose. To determine time to peak effect, 300 mg/kg of each of the test compounds was suspended in 0.5% methylcellulose in saline and administered orally to a group of 20 mice. For comparative purposes, isovaleramide was also tested. At various times (0.25, 0.5, 1, 2, and 4 hours) after p.o. administration, individual mice were placed on the rotarod and tested for their ability to maintain balance on a rotating (6 rpm) 2.5-cm diameter knurled rod for 60 seconds. Mice that fell three times in this 60-second trial were considered impaired.
Following rotarod testing, the mice were tested in the maximal electroshock (MES)-induced tonic extension seizures test. For this test, a drop of electrolyte solution (0.5% butacaine sulfate in 0.9% saline) was placed on the eyes of each mouse prior to placement of corneal electrodes. The mice were restrained by gripping the loose skin on their dorsal surface and saline-coated corneal electrodes were held lightly against the two corneas. Each mouse received an electrical stimulation (50 mAmp, 50 Hz current, 0.2 sec) delivered through a silver-coated corneal electrode using an electroshock machine as originally described by Woodbury and Davenport (Arch Int. Pharmacodyn. Ther., 92:97-104, 1952). […] A tonic seizure was defined as a hindlimb extension in excess of 90 degrees from the plane of the body. Results were treated in a quantal manner. […] ED50's (the effective dose at which 50% of the mice were protected) were determined for Compounds W and HH by administering various doses (30, 100, 300 mg/kg) at the previously determined time to peak effect, as shown in Table 11.

male Swiss-Webster mice [2] = assay: Rotarod impairment test before MES testing; format: in vivo, mouse; conditions: 300 mg/kg p.o.
Experimental: as §1

[3] = test system: Frings audiogenic seizure-susceptible mouse; assay: Frings audiogenic seizure assay (protection against sound-induced tonic hindlimb extension); format: in vivo; conditions: for Seizure Score ± S.E.M.: score 1-5; for ED50: Mus musculus, po
Experimental: The anticonvulsant activity of compound S ((S)-(+)-2,2-dimethylcyclopropane-carboxamide) was tested using the Frings audiogenic seizure-susceptible mouse. […] Compound S, which is a solution at 300 mg/kg and a suspension at 600 mg/kg, was administered to the mice at the doses indicated in Tables 1-3. Compound S was obtained from Sigma-Aldrich Chemical Co. (Aldrich catalog number: 43,463-9).
At the time of testing, individual mice were placed into a round Plexiglas chamber and exposed to a sound stimulus of 110 decibels, 11 kHz, for 20 seconds. Mice not displaying tonic hindlimb extensions upon exposure to the sound stimulus were considered protected. In addition, the seizure score for each mouse was recorded as: (1) running for less than 10 seconds; (2) running for greater than 10 seconds; (3) clonic activity of limbs and/or vibrissae; (4) forelimb extension/hindlimb flexion; and (5) hindlimb extension. The average seizure score was calculated for each group of mice used in the dose-response study.
The anticonvulsant activity of compounds I, W, X, and AA was tested using the Frings audiogenic seizure-susceptible mouse model as described in Example 23. […] The therapeutic index relates to separation between therapeutic efficacy and CNS toxicity as measured by motor impairment in the rotarod performance test.

[4] = Rotarod test of motor impairment (toxicity) in the Frings study; format: in vivo; conditions: Frings, mouse, in vivo, po, rotarod, Table 4
Experimental: (§2) At each dose, the mice were also tested on a rotarod for testing of motor impairment (toxicity). Testing for motor impairment on the rotarod involved placing a mouse for a three-minute trial period on a one-inch diameter rod rotating at six revolutions per minute. If the mouse fell off of the rotating rod three times within the three-minute time period, the dose was considered a toxic response.
(§3) The therapeutic index relates to separation between therapeutic efficacy and CNS toxicity as measured by motor impairment in the rotarod performance test.

Frings mice = assay: as above; format: in vivo; conditions: for separation between efficacy and CNS toxicity: as measured by rotarod impairment; for Therapeutic Index: Frings, mouse, in vivo, po
Experimental: as §2, §3

[5] = humans, cited from earlier work
[6] = Table 5, read-out: ED50 Oral Administration

## C[C@H](C(N)=O)C(C)(C)C [Compound MM]
Male Swiss-Webster mice [1]; 0.25 hours
  # P/# T (protected/tested): 0/4
Male Swiss-Webster mice [1]; 0.5 hours
  # P/# T (protected/tested): 1/4
Male Swiss-Webster mice [1]; 1 hour
  # P/# T (protected/tested): 2/4
Male Swiss-Webster mice [1]; 2 hours
  # P/# T (protected/tested): 3/4
Male Swiss-Webster mice [1]; 4 hours
  # P/# T (protected/tested): 3/4
Male Swiss-Webster mice [2]; 0.25 hours
  # I/# T (impaired/tested): 2/4
Male Swiss-Webster mice [2]; 0.5 hours
  # I/# T (impaired/tested): 3/4
Male Swiss-Webster mice [2]; 1 hour
  # I/# T (impaired/tested): 4/4
Male Swiss-Webster mice [2]; 2 hours
  # I/# T (impaired/tested): 3/4
Male Swiss-Webster mice [2]; 4 hours
  # I/# T (impaired/tested): 3/4

## CC1(C)C[C@@H]1C(N)=O [Compound S, (S)-(+)-2,2-dimethylcyclopropanecarboxamide]
[3]; 30 mg/kg p.o., Table 1
  #Protected/#Tested 30 min: no mice were protected and 0/4
  #Protected/#Tested 120 min: no mice were protected and 0/4
[3]; 50 mg/kg p.o., Table 3
  #Prot./#Tested at 15 min: none of the mice were protected and 0/8
[3]; 50 mg/kg p.o.
  Seizure Score ± S.E.M.: 5 ± 0
[3]; 60 mg/kg p.o., Table 3
  #Prot./#Tested at 15 min: 5/8
[3]; 60 mg/kg p.o., 15 minutes, Table 3
  mice protected: 62.5%
[3]; 60 mg/kg p.o.
  Seizure Score ± S.E.M.: 2.1 ± 0.9
[3]; 75 mg/kg p.o., Table 3
  #Prot./#Tested at 15 min: 7/8
[3]; 75 mg/kg p.o., 15 minutes, Table 2
  mice protected: 75%
[3]; 75 mg/kg p.o., 15 minutes, Table 3
  mice protected: 87.5%
[3]; 75 mg/kg p.o.
  Seizure Score ± S.E.M.: 1.1 ± 0.6
[3]; 75 mg/kg p.o., ¼ hr, Table 2
  # Prot./# Tested: ¾
[3]; 75 mg/kg p.o., ½ hr, Table 2
  # Prot./# Tested: no mice were protected and 0/4
[3]; 100 mg/kg p.o., Table 3
  #Prot./#Tested at 15 min: 6/8
[3]; 100 mg/kg p.o., 15 minutes, Table 2
  mice protected: 75%
[3]; 100 mg/kg p.o., 15 minutes, Table 3
  mice protected: 75%
[3]; 100 mg/kg p.o., Table 1
  #Protected/#Tested 30 min: 3/4
  #Protected/#Tested 120 min: 1/4
[3]; 100 mg/kg p.o., 30 minutes, Table 1
  mice protected: 75%
[3]; 100 mg/kg p.o., 30 minutes, Table 2
  mice protected: 75%
[3]; 100 mg/kg p.o., 1 hr, Table 2
  # Prot./# Tested: no mice were protected and 0/4
[3]; 100 mg/kg p.o., 2 hrs, Table 2
  # Prot./# Tested: 1 mouse was protected and 1/4
[3]; 100 mg/kg p.o., 120 minutes, Table 1
  mice protected: 25%
[3]; 100 mg/kg p.o.
  Seizure Score ± S.E.M.: 1.6 ± 0.8
[3]; 100 mg/kg p.o., ¼ hr, Table 2
  # Prot./# Tested: ¾
[3]; 100 mg/kg p.o., ½ hr, Table 2
  # Prot./# Tested: 3/4
[3]; 200 mg/kg p.o., Table 3
  #Prot./#Tested at 15 min: all the mice were protected and 8/8
[3]; 200 mg/kg p.o.
  Seizure Score ± S.E.M.: 0.1 ± 0.1
[3]; 300 mg/kg p.o., Table 1
  #Protected/#Tested 30 min: all of the tested mice were protected and 4/4
  #Protected/#Tested 120 min: all of the tested mice were protected and 4/4
[3]; 50-200 mg/kg p.o., Table 3
  average seizure score with dose: generally decreased with increasing doses
[3]; 0.25 h, p.o., tested at 15 min, 95% confidence interval 50.16-78.92, read-out: ED50 for protection against tonic extension
  ED50: 64.9 mg/kg
[3]; Table 4, read-out: ED50
  ED50: 64.8 mg/kg
[3]; after oral administration
  time at which anticonvulsant activity was observed: as early as 15 minutes and up to 2 hours
[3]; p.o.
  anticonvulsant activity (summary): demonstrated activity as an anticonvulsant
[4]
  TD50 at 15 min: > 600 mg/kg
Frings mice; 30 mg/kg p.o., rotarod
  #Toxic/#Tested 30 min: 0/4
  #Toxic/#Tested 120 min: 0/4
Frings mice; 100 mg/kg p.o., rotarod
  #Toxic/#Tested 30 min: 0/4
  #Toxic/#Tested 120 min: 0/4
Frings mice; 300 mg/kg p.o., rotarod
  #Toxic/#Tested 30 min: 0/4
  #Toxic/#Tested 120 min: 0/4
Frings mice; 600 mg/kg p.o., 15 min, rotarod
  #Toxic/#Tested at 15 min: 1/8
Frings mice; 600 mg/kg p.o., 15 minutes, rotarod
  mice with a toxic response: 12.5%
Frings mice; p.o.
  separation between efficacy and CNS toxicity: 10 fold
  separation between activity and toxicity (summary): good separation between activity and toxicity
Frings mice; doses of Table 1 (30, 100, 300 mg/kg p.o.), 30 or 120 minutes
  toxic responses on the rotarod: none of the doses produced toxic responses
Frings mice; p.o., rotarod
  toxicity (summary): low toxicity
Male Swiss-Webster mice [1]; 0.25 hours
  # P/# T (protected/tested): 0/8
Male Swiss-Webster mice [1]; 0.5 hours
  # P/# T (protected/tested): 0/8
Male Swiss-Webster mice [1]; 1 hour
  # P/# T (protected/tested): 1/8
Male Swiss-Webster mice [1]; 2 hours
  # P/# T (protected/tested): 0/4
Male Swiss-Webster mice [1]; 4 hours
  # P/# T (protected/tested): 0/4
Male Swiss-Webster mice [2]; 0.25 hours
  # I/# T (impaired/tested): 0/8
Male Swiss-Webster mice [2]; 0.5 hours
  # I/# T (impaired/tested): 1/8
Male Swiss-Webster mice [2]; 1 hour
  # I/# T (impaired/tested): 1/8
Male Swiss-Webster mice [2]; 2 hours
  # I/# T (impaired/tested): 0/4
Male Swiss-Webster mice [2]; 4 hours
  # I/# T (impaired/tested): 0/4

## C[C@H]1CC[C@H](C(N)=O)CC1 [Compound W, trans-4-methylcyclohexanecarboxamide]
[3]; [6]
  ED50: 164 mg/kg
Frings mice
  Therapeutic Index: >4-fold
Male Swiss-Webster mice [1]; p.o., at time to peak effect, MES
  ED50 Oral Administration: Inactive at 300 mg/kg

## CC1CCC(CC(N)=O)CC1 (stereo not drawn) [Compound X, 2-(4-methylcyclohexyl)acetamide]
[3]; [6]
  ED50: 86.4 mg/kg
Frings mice
  Therapeutic Index: >6-fold

## CC(C)CC(N)=O [Isovaleramide, isovaleramide]
[3]; Table 4, read-out: ED50
  ED50: 206 mg/kg
Frings mice; p.o.
  separation between efficacy and CNS toxicity: 5 fold
Male Swiss-Webster mice [1]; Mus musculus, po, at time to peak effect, MES, read-out: ED50 Oral Administration
  ED50: 913 mg/kg
[5]; oral, doses ranging from 100 mg to 1600 mg
  half-life: about 2.5 hours
[5]; orally administered
  absorption: readily absorbed from the gastrointestinal tract
